From article PMC6686156, “Discovery of Sustainable Drugs for Neglected Tropical Diseases: Cashew Nut Shell Liquid (CNSL)‐Based Hybrids Target Mitochondrial Function and ATP Production in Trypanosoma brucei” (Chemmedchem, 2019) come the findings set out here.

The test system of one series is HFF cells. Put plainly: ATP assay on HFF cells. Particulars: 22 at 200 μM, oligomycin 2 μg/mL; 0, 4, 8 h. The class given is cell-based, human. The protocol:
ATP assay on T. b. brucei and HFF cells: Changes in cellular ATP levels due to the exposure of trypanosomes to the test compounds (0.5×EC50) were monitored using the Molecular Probes ATP Determination Kit (A22066, Invitrogen Detection Technologies), based on the luciferin–luciferase bioluminescent enzymatic reaction. Bloodstream trypomastigote cultures of T. brucei s427WT were incubated with and without test compound, and, at each predetermined incubation time, 10^7 cells of each sample were transferred into a microfuge tube and centrifuged at 2000×g for 10 min at 4 °C. The pellet was washed twice with 1 mL of 50 mM Tris⋅HCl (pH 7.4) containing 0.1 mM DTT, and then resuspended in 200 μL of the same buffer. […] ATP levels were quantified using the contents of the kit following the manufacturer's instructions; 90 μL of standard reaction solution was added to each well of a 96‐well plate and the background luminescence was recorded in a FLUOstar OPTIMA fluorimeter; 10 μL of each sample was then added to each well. The plate was incubated at 28 °C for 15 min and the luminescence was measured, including a standard curve with an ATP concentration ranging from 1 nM to 1 μM to allow the calculation of the ATP concentrations in each sample. The ATP content was measured at 0, 0.5, 1, 2, 4, 8 and 12 h of incubation with test sample. […]

The test system of series [1] is T. b. brucei 427WT bloodstream trypomastigotes. Kind of series: ATP assay on T. b. brucei (luciferin-luciferase). Particulars: approximately 0.5×EC50; after 4–6 h. The class given is cell-based, Trypanosoma brucei brucei. As to the method: ATP assay on T. b. brucei and HFF cells: Changes in cellular ATP levels due to the exposure of trypanosomes to the test compounds (0.5×EC50) were monitored using the Molecular Probes ATP Determination Kit (A22066, Invitrogen Detection Technologies), based on the luciferin–luciferase bioluminescent enzymatic reaction. Bloodstream trypomastigote cultures of T. brucei s427WT were incubated with and without test compound, and, at each predetermined incubation time, 10^7 cells of each sample were transferred into a microfuge tube and centrifuged at 2000×g for 10 min at 4 °C. The pellet was washed twice with 1 mL of 50 mM Tris⋅HCl (pH 7.4) containing 0.1 mM DTT, and then resuspended in 200 μL of the same buffer. The cells were lysed by sonication on ice (twice for 10 s separated by 30 s), using a Soniprep 150 (MSE) at 8 μm amplitude. The samples were centrifuged at 10 000×g for 10 min at 4 °C and the supernatant was collected, instantly frozen in liquid nitrogen, and stored at −80 °C. Oligomycin (2.0 μg mL^−1) was used as positive control. ATP levels were quantified using the contents of the kit following the manufacturer's instructions; 90 μL of standard reaction solution was added to each well of a 96‐well plate and the background luminescence was recorded in a FLUOstar OPTIMA fluorimeter; 10 μL of each sample was then added to each well. The plate was incubated at 28 °C for 15 min and the luminescence was measured, including a standard curve with an ATP concentration ranging from 1 nM to 1 μM to allow the calculation of the ATP concentrations in each sample. The ATP content was measured at 0, 0.5, 1, 2, 4, 8 and 12 h of incubation with test sample.

Series [2] relates to T. b. brucei 427WT trypomastigotes. Kind of series: Growth curve / time-to-kill determination. The class given is cell-based, Trypanosoma brucei brucei. Particulars: 1× EC50; over 48 h. As to the method:
To determine whether 18–22 inhibited growth or cell division rather than causing cell death of T. b. brucei, cell growth curves were performed by treating 427WT trypomastigotes with concentrations corresponding to 0.5×, 1×, and 2× the EC50 value, using untreated cells as a control. Incubation with test compounds at half the EC50 (Figure 3 A) caused mostly some delayed growth phenotype, with rates increasing after 10 or 20 h. […] At double the concentration (Figure 3 C), all the hybrids cleared the culture between the 4 h and 8 h time points, with the cell populations rapidly declining between 2 and 4 h.
Untreated parasites, used as control, were grown in parallel. The cells were counted by using hemocytometer cell counter (cell count/mL×10^4) at 0, 2, 4, 8, 12, 24, 28, 32, 36, 48 h of incubation. Each experiment was performed as two independent replicates, and each sample was counted at least twice.

Another series concerns the target T. brucei GAPDH (Trypanosoma brucei brucei, UniProt P22512). Kind of series: Inhibition of T. brucei GAPDH. The class given is biochemical. As to conditions: fixed concentration of 10 μM; data not shown; read-out: decrease of GAPDH activity. The text has this: […]. […] Limitations of solubility prevented us from testing the series at higher concentrations. However, it must be noted that we cannot exclude the possibility of a low‐affinity inhibition of GAPDH contributing to the trypanocidal effect, as compounds may accumulate to relatively high concentrations within the parasite.

Chain of T. brucei GAPDH (P22512 whole entry): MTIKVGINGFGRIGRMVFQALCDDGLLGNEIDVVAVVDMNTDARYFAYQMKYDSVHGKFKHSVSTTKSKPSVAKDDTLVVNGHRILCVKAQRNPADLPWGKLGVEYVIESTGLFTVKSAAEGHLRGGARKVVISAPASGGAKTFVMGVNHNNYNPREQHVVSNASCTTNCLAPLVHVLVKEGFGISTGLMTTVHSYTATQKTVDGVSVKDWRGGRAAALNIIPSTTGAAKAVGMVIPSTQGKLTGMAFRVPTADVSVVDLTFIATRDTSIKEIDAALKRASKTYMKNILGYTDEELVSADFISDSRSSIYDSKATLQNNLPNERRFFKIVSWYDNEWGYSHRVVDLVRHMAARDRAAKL

For the compound `O=C1C(Oc2cccc(CCCCCCCCO)c2)=CC(=O)c2c(O)cccc21` [Compound 22, 5‐Hydroxy‐2‐(3‐(8‐hydroxyoctyl)phenoxy)naphthalene‐1,4‐dione], the “effect on cellular ATP levels of HFF cells” value in the series with HFF cells was “only a very minor effect on cellular ATP levels”. In addition, the “ATP content, % of untreated [ATP]” value in series [1] is given as “approximately 50%”. Also, the “effect on cell growth” value in series [2] was “killed only a proportion of the cell population before stabilizing”. Further, the inhibition at 10 µM on T. brucei GAPDH is less than 15%.

For the compound `COc1cccc2c1C(=O)C=C(Oc1cccc(CCCCCCCCO)c1)C2=O` [Compound 20, 2‐(3‐(8‐Hydroxyoctyl)phenoxy)‐5‐methoxynaphthalene‐1,4‐dione], in series [1], the “ATP content, % of untreated [ATP]” value is on record as “approximately 50%”. The “effect on cell growth” value in series [2] was “decreased the growth rate substantially, with a nearly trypanostatic effect over the first 12 h”. Also, the inhibition at 10 µM at T. brucei GAPDH was less than 15%.
